Structures can show the parent of a compound that is named as a salt.
Target: human KDR protein in HEK-293 cells (Homo sapiens (Human), UniProt P35968)
Assay: KDR Cell Assay (phospho-KDR in HEK-293 cells expressing inducible KDR)
Type: cell-based
Details: pKDR Cell HEK 10% FBS IC50, HEK-293 cells expressing inducible KDR, VEGF stimulated
Method: The cellular potency of a compound inhibiting KDR kinase was determined in HEK-293 cells expressing an inducible human KDR protein. […] The cells were incubated for 1 hour with test compound in DMEM at a final DMSO concentration of 0.25%. […] The media was aspirated and 35 μL of a 1× lysis buffer was added. […] The lysate was stored at −80° C. until ready for assay. Phospho-KDR was measured using a phospho-KDR kit (Catalog #K151BOC) purchased from Meso Scale Diagnostics (Rockville, Md.) according to the manufacturer's instructions. All values are expressed as percent of percent of control (POC). The POC values were fitted to a 4 parameter logistic curve fit and the IC50 value is point where the curve crosses 50 POC.

Chain of human KDR protein in HEK-293 cells (P35968 20-1356): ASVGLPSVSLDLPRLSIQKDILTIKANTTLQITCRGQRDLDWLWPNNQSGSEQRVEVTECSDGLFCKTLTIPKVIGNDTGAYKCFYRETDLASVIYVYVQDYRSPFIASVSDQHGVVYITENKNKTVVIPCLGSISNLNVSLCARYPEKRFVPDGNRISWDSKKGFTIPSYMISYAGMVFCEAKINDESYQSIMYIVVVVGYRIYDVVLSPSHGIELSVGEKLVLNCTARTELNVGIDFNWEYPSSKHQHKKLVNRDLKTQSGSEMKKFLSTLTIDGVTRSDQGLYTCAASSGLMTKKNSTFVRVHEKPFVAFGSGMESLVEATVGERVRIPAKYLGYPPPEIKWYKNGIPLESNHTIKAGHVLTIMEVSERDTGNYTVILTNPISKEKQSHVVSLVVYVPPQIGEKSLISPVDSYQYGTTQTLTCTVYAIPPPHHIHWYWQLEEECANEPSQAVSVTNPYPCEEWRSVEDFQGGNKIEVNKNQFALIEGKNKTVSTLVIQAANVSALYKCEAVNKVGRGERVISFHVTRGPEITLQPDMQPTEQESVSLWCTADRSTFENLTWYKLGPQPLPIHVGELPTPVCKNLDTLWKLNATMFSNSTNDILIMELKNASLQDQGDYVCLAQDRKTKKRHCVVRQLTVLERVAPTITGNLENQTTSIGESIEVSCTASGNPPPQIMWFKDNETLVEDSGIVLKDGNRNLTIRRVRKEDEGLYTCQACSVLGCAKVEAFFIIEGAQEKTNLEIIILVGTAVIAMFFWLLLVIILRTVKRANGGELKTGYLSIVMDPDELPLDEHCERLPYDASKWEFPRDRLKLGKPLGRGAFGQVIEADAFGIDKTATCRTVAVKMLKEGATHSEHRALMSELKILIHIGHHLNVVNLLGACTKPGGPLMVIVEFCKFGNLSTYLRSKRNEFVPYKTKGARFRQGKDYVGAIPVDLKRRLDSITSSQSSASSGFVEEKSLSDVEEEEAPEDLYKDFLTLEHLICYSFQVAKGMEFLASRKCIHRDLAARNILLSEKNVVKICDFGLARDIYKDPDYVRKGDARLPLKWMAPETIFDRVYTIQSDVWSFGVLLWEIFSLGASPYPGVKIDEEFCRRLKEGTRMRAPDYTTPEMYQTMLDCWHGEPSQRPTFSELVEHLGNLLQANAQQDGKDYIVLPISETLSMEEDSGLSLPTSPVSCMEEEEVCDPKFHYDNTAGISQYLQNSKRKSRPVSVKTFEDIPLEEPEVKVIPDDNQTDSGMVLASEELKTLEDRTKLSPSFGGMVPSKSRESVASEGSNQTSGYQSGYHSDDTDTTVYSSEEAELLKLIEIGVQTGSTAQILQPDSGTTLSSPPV

SMILES | IC50 [nM] | IC50 (10% FBS) [nM]
Cn1cc(-c2cc(-c3ccc(N4CCC(O)(C(F)(F)F)C4)nc3)c3c(C#N)cnn3c2)cn1 (centres unmarked) [Example 531, 4-(6-(3-hydroxy-3-(trifluoromethyl)pyrrolidin-1-yl)pyridin-3-yl)-6-(1-methyl-1H-pyrazol-4-yl)pyrazolo[1,5-a]pyridine-3-carbonitrile 2,2,2-trifluoroacetate] | 690 | 
Cn1cc(-c2cc(-c3ccc(N4CCC5(CCN(C(=O)OC(C)(C)C)CC5)C4)nc3)c3c(C#N)cnn3c2)cn1 [Example 517, tert-butyl 2-(5-(3-cyano-6-(1-methyl-1H-pyrazol-4-yl)pyrazolo[1,5-a]pyridin-4-yl)pyridin-2-yl)-2,8-diazaspiro[4.5]decane-8-carboxylate] | 1790 | 
Cn1cc(-c2cc(-c3ccc(N4CCC5(CCCNC5)C4)nc3)c3c(C#N)cnn3c2)cn1 (centres unmarked) [Example 546, 4-(6-(2,7-diazaspiro[4.5]decan-2-yl)pyridin-3-yl)-6-(1-methyl-1H-pyrazol-4-yl)pyrazolo[1,5-a]pyridine-3-carbonitrile dihydrochloride] | 811 | 
Cn1cc(-c2cc(-c3ccc(N4CCN(C(=O)Cc5ccc(C#N)cc5)CC4)nc3)c3c(C#N)cnn3c2)cn1 [Example 365, 4-(6-(4-(2-(4-cyanophenyl)acetyl)piperazin-1-yl)pyridin-3-yl)-6-(1-methyl-1H-pyrazol-4-yl)pyrazolo[1,5-a]pyridine-3-carbonitrile 2,2,2-trifluoroacetate] |  | 597
Cn1cc(-c2cc(-c3ccc(N4CCN(C(=O)[C@H](O)c5ccccc5)CC4)nc3)c3c(Cl)cnn3c2)cn1 [Example 327, (R)-1-(4-(5-(3-chloro-6-(1-methyl-1H-pyrazol-4-yl)pyrazolo[1,5-a]pyridin-4-yl)pyridin-2-yl)piperazin-1-yl)-2-hydroxy-2-phenylethanone] |  | 606
Cn1cc(-c2cc(-c3ccc(N4CCN(C(=O)N5CCC[C@H]5C(F)(F)F)CC4)nc3)c3c(C#N)cnn3c2)cn1 [Example 113, (S)-6-(1-methyl-1H-pyrazol-4-yl)-4-(6-(4-(2-(trifluoromethyl)pyrrolidine-1-carbonyl)piperazin-1-yl)pyridin-3-yl)pyrazolo[1,5-a]pyridine-3-carbonitrile] |  | 654
Cc1cnc(CN2CCN(c3ccc(-c4cc(-c5cnn(C)c5)cn5ncc(C#N)c45)cn3)CC2)cn1 [Example 444, 6-(1-methyl-1H-pyrazol-4-yl)-4-(6-(4-((5-methylpyrazin-2-yl)methyl)piperazin-1-yl)pyridin-3-yl)pyrazolo[1,5-a]pyridine-3-carbonitrile] | 1290 | 
COc1cccc(CN2CCN(c3ccc(-c4cc(-c5cnn(C)c5)cn5ncc(C#N)c45)cn3)CC2)c1 [Example 450, 4-(6-(4-(3-methoxybenzyl)piperazin-1-yl)pyridin-3-yl)-6-(1-methyl-1H-pyrazol-4-yl)pyrazolo[1,5-a]pyridine-3-carbonitrile] | 467 | 
Cn1cc(-c2cc(-c3ccc(N4CCN(C(=O)C(O)c5ccccc5F)CC4)nc3)c3c(C#N)cnn3c2)cn1 (centres unmarked) [Example 10, 4-(6-(4-(2-(2-fluorophenyl)-2-hydroxyacetyl)piperazin-1-yl)pyridin-3-yl)-6-(1-methyl-1H-pyrazol-4-yl)pyrazolo[1,5-a]pyridine-3-carbonitrile] |  | 47.4
Cn1cc(-c2cc(-c3ccc(N4CCN(Cc5ccncc5F)CC4)nc3)c3c(C#N)cnn3c2)cn1 [Example 434, 4-(6-(4-((3-fluoropyridin-4-yl)methyl)piperazin-1-yl)pyridin-3-yl)-6-(1-methyl-1H-pyrazol-4-yl)pyrazolo[1,5-a]pyridine-3-carbonitrile] | 1700 | 
Cn1cc(-c2cc(-c3ccc(N4CC5(CCN(Cc6ccccc6)CC5)C4)nc3)c3c(C#N)cnn3c2)cn1 [Example 485, 4-(6-(7-benzyl-2,7-diazaspiro[3.5]nonan-2-yl)pyridin-3-yl)-6-(1-methyl-1H-pyrazol-4-yl)pyrazolo[1,5-a]pyridine-3-carbonitrile] | 4800 | 
Cn1cc(-c2cc(-c3ccc(N4CCN(C[C@H](O)c5ccccc5)CC4)nc3)c3c(C#N)cnn3c2)cn1 [Example 161, (R)-4-(6-(4-(2-hydroxy-2-phenylethyl)piperazin-1-yl)pyridin-3-yl)-6-(1-methyl-1H-pyrazol-4-yl)pyrazolo[1,5-a]pyridine-3-carbonitrile] |  | 48.5
Cn1cc(-c2cc(-c3ccc(N4CCC5(CC4)CN(C(=O)C4CC4)C5)nc3)c3c(C#N)cnn3c2)cn1 [Example 492, 4-(6-(2-(cyclopropanecarbonyl)-2,7-diazaspiro[3.5]nonan-7-yl)pyridin-3-yl)-6-(1-methyl-1H-pyrazol-4-yl)pyrazolo[1,5-a]pyridine-3-carbonitrile] | 563 | 
Cn1cc(-c2cc(-c3ccc(N4CCN(C(=O)N5CC[C@H](c6ccccc6)C5)CC4)nc3)c3c(C#N)cnn3c2)cn1 [Example 378, (R)-6-(1-methyl-1H-pyrazol-4-yl)-4-(6-(4-(3-phenylpyrrolidine-1-carbonyl)piperazin-1-yl)pyridin-3-yl)pyrazolo[1,5-a]pyridine-3-carbonitrile] | 467 | 
Cn1cc(-c2cc(-c3ccc(N4CCN(C(=O)C5(c6ccccc6)CCCC5)CC4)nc3)c3c(C#N)cnn3c2)cn1 [Example 24, 6-(1-methyl-1H-pyrazol-4-yl)-4-(6-(4-(1-phenylcyclopentanecarbonyl)piperazin-1-yl)pyridin-3-yl)pyrazolo[1,5-a]pyridine-3-carbonitrile] |  | 960
Cn1cc(-c2cc(-c3ccc(N4CC[C@@H](C(=O)N5CCCC5)C4)nc3)c3c(C#N)cnn3c2)cn1 [Example 260, (R)-6-(1-methyl-1H-pyrazol-4-yl)-4-(6-(3-(pyrrolidine-1-carbonyl)pyrrolidin-1-yl)pyridin-3-yl)pyrazolo[1,5-a]pyridine-3-carbonitrile] |  | ≥ 5000
Cn1cc(-c2cc(-c3ccc(N4CCN(Cc5ncccn5)CC4)nc3)c3c(C#N)cnn3c2)cn1 [Example 472, 6-(1-methyl-1H-pyrazol-4-yl)-4-(6-(4-(pyrimidin-2-ylmethyl)piperazin-1-yl)pyridin-3-yl)pyrazolo[1,5-a]pyridine-3-carbonitrile] | 1770 | 
CO[C@H]1CCN(C(=O)N2CCN(c3ccc(-c4cc(-c5cnn(C)c5)cn5ncc(Cl)c45)cn3)CC2)C1 [Example 645, (S)-(4-(5-(3-chloro-6-(1-methyl-1H-pyrazol-4-yl)pyrazolo[1,5-a]pyridin-4-yl)pyridin-2-yl)piperazin-1-yl)(3-methoxypyrrolidin-1-yl)methanone] | 1680 | 
Cn1cc(-c2cc(-c3ccc(N4CCN(C(=O)[C@H](O)c5ccccc5)CC4)nc3)c3c(C#N)cnn3c2)cn1 [Example 82, (R)-4-(6-(4-(2-hydroxy-2-phenylacetyl)piperazin-1-yl)pyridin-3-yl)-6-(1-methyl-1H-pyrazol-4-yl)pyrazolo[1,5-a]pyridine-3-carbonitrile] |  | 91.2
Cn1cc(-c2cc(-c3ccc(N4CCN(C(=O)N5CCC[C@H]5C#N)CC4)nc3)c3c(C#N)cnn3c2)cn1 [Example 112, (S)-4-(6-(4-(2-cyanopyrrolidine-1-carbonyl)piperazin-1-yl)pyridin-3-yl)-6-(1-methyl-1H-pyrazol-4-yl)pyrazolo[1,5-a]pyridine-3-carbonitrile] |  | 869

— patent US10023570B2 (Array BioPharma, Inc., priority 2015, dated 2018)
